Where a SMILES comes first, the peptide text is derived from it. The star is where a group is joined. βNA = c1ccc2cc(N*)ccc2c1
What was measured:
[1] = tested on: primary murine bone marrow-derived macrophages (BMMs); assay: Oxygen consumption rate (Seahorse) in bone marrow-derived macrophages; format: cell-based
[2] = tested on: HEK293 cells with YFP-Gal fusion; assay: YFP-Galectin puncta formation by high content microscopy; format: cell-based; conditions: 100 μM, 1h
Excerpt: Data, means±SD; n=1000 cells per condition; n>3; ANOVA, Tukey's t test vs. control, *p<0.05.**p<0.01.
a) Screen set up. […] Given that the endomembrane damage protection is a highly conserved process, we will use stable (Flp-In) YFP-Gal8 and YFP-Gal9 293A cells. […] In THP-1 cells, we will use endogenous Gal8 and Gal9 responses to lysosomal damage control. […] Quantification of target 1 (Gal8) and target II (Gal9) intracellular objects (Gal8 puncta) will be done by automated HC microscopy on our Cellomics Array Scanner system and processed, as we have recently published^99. We will use in primary tests parameters of 20 fields per well and >500 valid primary objects per well, corresponding to parameters that follow Z values of >0.5^155 in positive controls (100 μM GPN; 2 mM LLOMe) vs. negative controls (DMSO). For secondary tests of positive hits, 49 field/plate will be examined.

DEPTOR = DEPTOR levels in extracts of HeLa cells; format: cell-based; conditions: 1 mM, 2h
Method: (§1) Immunoblots and co-IPs assays for endogenous or exogenously expressed proteins were carried out as described previously (Chauhan et al., 2015). For immunoprecipitation experiments with exogenously expressed proteins, 293T cells were transfected with 5 μg of expression constructs by calcium phosphate for 24 h and lysed on ice using NP-40 buffer (Invitrogen) containing protease inhibitor cocktail (Roche, cat #11697498001) and […] (Sigma, cat #93482). Lysates were mixed with antibody (2-3 μg) incubated at 4° C. for 2 h followed by incubation with protein G Dynabeads (Life technologies) for 2 h at 4° C. Beads were washed four times with PBS and then boiled with SDS-PAGE buffer for analysis of interacting protein by Immunoblotting. Input lanes contained 10% of material unless otherwise indicated.

THP-1 cells = assay: Confocal microscopy of TRIM16 puncta in THP-1 cells; format: cell-based; conditions: 0.5 mM
Method: (§2) High content microscopy with automated image acquisition and quantification was carried out using a Cellomics HCS scanner and iDEV software (Thermo) in 96-well plates (Mandell et al., 2014). Immunofluorescence confocal microscopy was performed using an LSM510 confocal microscope and Zeiss software package. For quantification of puncta or total cell fluorescence, image J was used as described previously (Chauhan et al., 2015). For quantifying cell death, HeLa and derivative cells treated with 15 μM siramesine for 12 h were incubated with 7AAD (BD Pharmingen™; cat #559925) for 30 min and fluorescence of 7AAD bound to nuclear DNA measured in a flow cytometer.

mTOR = assay: S6K1 phosphorylation (mTOR target) immunoblot in HeLa cells; format: cell-based; conditions: 1 mM, 2h
Method: as §1

HeLa cells [3] = assay: Cell death by 7AAD nuclear staining, flow cytometry; format: cell-based
Method: as §2

HeLa cells [4] = assay: High content microscopy of LC3 and ubiquitin puncta after lysosomal damage; format: cell-based
Method: as §2

TFEB = assay: High content analysis of TFEB nuclear translocation; format: cell-based; conditions: HeLa cells, lysosomal damage
Method: as §2

Mtb Erdman = tested on: Mtb Erdman; design: species or system C57BL/6J mice; conditions: mouse, in vivo
AMPK = AMPK activation response in THP-1 macrophages; format: cell-based; conditions: cells KD for Gal9
THP-1 macrophages [5] = assay: Lysosomal damage readouts (cathepsin B activity, LysoTracker Red) in THP-1 macrophages; format: cell-based
THP-1 macrophages [6] = assay: Galectin puncta formation in THP-1 macrophages; format: cell-based; conditions: 250 μM, 2h
[7] = Blood levels of rapamycin by mass spectrometry in mice on eRAPA chow; conditions: 42 ppm eRAPA dose in chow; n=8 animals, mean±SD (±35 ng/ml)
HeLa cells [8] = conditions: Petersen et al., 2013; cited from earlier work
HeLa cells [9] = assay: Confocal microscopy of TRIM16 puncta in HeLa cells; format: cell-based
Method: as §2

For `NCC(=O)N[C@@H](Cc1ccccc1)C(=O)Nc1ccc2ccccc2c1` [GPN, Gly-Phe-naphthylamide] (H-Gly-Phe-βNA), the “oxygen consumption rate (OCR)” value [1] was “alters” and the “cytoplasmic Galectin puncta formation response” value [2] was “Gal3, Gal8 and Gal9 give the most robust response”.
In the case of `COC(=O)[C@H](CC(C)C)NC(=O)[C@@H](N)CC(C)C` [LLOMe, Leu-Leu-O-Me], the “cellular DEPTOR level” value (DEPTOR) is reported as “increased”, the “TRIM16 puncta formation in leukocytes” value (THP-1 cells) is reported as “morphologically prominent” and the “mTOR activity (S6K1 phosphorylation)” value (mTOR) is reported as “inhibited”. For the same compound, the lysosomal cell death (HeLa cells [3]; HeLa cells) was “cannot cause significant lysosomal cell death”, the “LC3 response (endogenous LC3B puncta)” value (HeLa cells [4]) was “consistent LC3 dose response” and the “abundance of ubiquitin puncta” value (HeLa cells [4]; high content microscopy) was “Dose-dependent increase”. For the same compound, the “TFEB translocation to the nucleus” value (TFEB) was “translocated to the nucleus”.
With `Nc1c(Br)cc(Br)cc1CN[C@H]1CC[C@H](O)CC1` [ambroxol] the “effect on Mtb lung CFU in combination with rifampicin” value (Mtb Erdman) was “synergism”.
With `CN(C)C(=N)N=C(N)N` [metformin] the AMPK activation (AMPK) was “Gal9-dependent AMPK activation”, the “LysoTracker Red stain” value (THP-1 macrophages [5]; THP-1 macrophages) was “Reduction” and the “lysosomal cathepsin B activity” value (THP-1 macrophages [5]; THP-1 macrophages) was “loss of activity”. The lysosomal damage (THP-1 macrophages [5]; preliminary studies) was “causes lysosomal damage” and the Galectin puncta formation (THP-1 macrophages [6]) was “causes Gal3, Gal8, and Gal9 puncta formation”.
In the case of `CO[C@H]1C[C@@H]2CC[C@@H](C)[C@@](O)(O2)C(=O)C(=O)N2CCCC[C@H]2C(=O)O[C@H]([C@H](C)C[C@@H]2CC[C@@H](O)[C@H](OC)C2)CC(=O)[C@H](C)/C=C(\C)[C@@H](O)[C@@H](OC)C(=O)[C@H](C)C[C@H](C)/C=C/C=C/C=C/1C` [rapamycin], the “blood levels of rapamycin” value [7] is reported as 0.205 µg/mL.
For `Fc1ccc(-n2cc(CCCCN3CCC4(CC3)OCc3ccccc34)c3ccccc32)cc1` [siramesine], the “cell death in HeLa cells (literature)” value (HeLa cells [8]) is given as “can promote cell death”, the “sensitivity to cell death in TRIM16KO HeLa cells vs HeLa” value (HeLa cells [3]; 15 μM, 12 h, 7AAD) is given as “increased sensitivity to cell death” and the “TRIM16 puncta formation in HeLa cells” value (HeLa cells [9]) is given as “formation of TRIM16 puncta that colocalized with LC3B”.

From patent US12285470B2, “Trim proteins and galectins cooperate and codirect autophagy and are useful in the treatment of autophagy related diseases” (UNM RAINFOREST INNOVATIONS, priority 2016, dated 2025)
